{
  "source": "patent US20100272680A1",
  "about": "“Piperidinyl Cyclic Amido Antiviral Agents” (priority 2009, published 2010)",
  "key": {"HCV Genotype 1A Replicon": {"tested_on": "HCV Genotype 1A Replicon", "assay": "Replicon assay, genotype 1a subgenomic replicon, luciferase readout", "assay_type": "cell-based", "conditions": "Hepatitis C virus, 48 h, Table 3; luciferase activity after 48 hours", "experimental": "(§1) Compounds were assayed for activity against HCV using the genotype 1a and 1b subgenomic replicon model systems. Stable cell lines bearing the genotype 1a and 1b replicons were used for screening of compounds. Both replicons are bicistonic and contain the firefly luciferase gene. The ET cell line is stably transfected with RNA transcripts harboring a I389luc-ubi-neo/NS3-3′/ET replicon with firefly luciferase-ubiquitin-neomycin phosphotransferase fusion protein and EMCV-IRES driven NS3-5B polyprotein containing the cell culture adaptive mutations (E1202G; T12801; K1846T) (Krieger at al, 2001 and unpublished). The genotype 1a replicon is a stable cell line licensed from Apath LLC, modified to contain the firefly luciferase gene. The cells were grown in DMEM, supplemented with 10% fetal calf serum, 2 mM Glutamine, Penicillin (100 IU/mL)/Streptomycin (100 μg/mL), 1× nonessential amino acids, and 250-500 μg/mL G418 (“Geneticin”). They were all available through Life Technologies (Bethesda, Md.). The cells were plated at 0.5×10^4 cells/well in 384 well plates containing compounds. The final concentration of compounds ranged between 0.03 μM to 50 μm and the final DMSO concentration of 0.5-1%.\n(§2) Luciferase activity was measured 48 hours later by adding a Steady glo (Promega, Madison, Wis.). Percent inhibition of replication data was plotted relative to no compound control. Under the same condition, cytotoxicity of the compounds was determined using cell titer glo (Promega, Madison, Wis). IC50s were determined from a 10 point dose response curve using 3-4-fold serial dilution for each compound, which spans a concentration range >1000 fold. BioAssay determines the level of inhibition for each compound by normalizing cross-talk corrected plate values against the negative […] controls to determine Percent Inhibition:\n(§3) These normalized values are exported to EC50 where they are plotted against the molar compound concentrations using the standard four parameter logistic equation: […]\n(§4) Some EC50 measurements were repeated a second time and for both 1A and 1B genotypes after those reported in Table 2 for compounds 101-108 and the repeated data was reported in Table 3."}, "HCV Genotype 1B Replicon": {"tested_on": "HCV Genotype 1B Replicon", "assay": "Replicon assay, genotype 1b subgenomic replicon (ET cell line), luciferase readout", "assay_type": "cell-based", "conditions": "Hepatitis C virus, 48 h, Table 3; luciferase activity after 48 hours", "experimental": "as §1, §2, §3, §4"}},
  "data": [
    {"compound": "C[C@H]1C[C@@H](N2CCOC2=O)CCN1C(=O)c1nc2c(C(F)(F)F)cc(-c3ccoc3)cn2c1Cl", "note": "(racemic) [Compound 205, (±) cis-3-(1-{[3-chloro-6-(3-furanyl)-8-(trifluoromethyl)imidazo[1,2-a]pyridin-2-yl]carbonyl}-2-methyl-4-piperidinyl)-1,3-oxazolidin-2-one]", "values": [
      {"measurement": "EC50", "setting": "HCV Genotype 1A Replicon", "value": 1070, "unit": "nM"},
      {"measurement": "EC50", "setting": "HCV Genotype 1B Replicon", "value": 1760, "unit": "nM"}
    ]},
    {"compound": "C[C@@H]1C[C@@H](N2CCOC2=O)CCN1C(=O)c1nc2c(C(F)(F)F)cc(-c3ccoc3)cn2c1Cl", "note": "(racemic) [Compound 206, (±) trans-3-(1-{[3-chloro-6-(3-furanyl)-8-(trifluoromethyl)imidazo[1,2-a]pyridin-2-yl]carbonyl}-2-methyl-4-piperidinyl)-1,3-oxazolidin-2-one]", "values": [
      {"measurement": "EC50", "setting": "HCV Genotype 1A Replicon", "value": 70, "unit": "nM"},
      {"measurement": "EC50", "setting": "HCV Genotype 1B Replicon", "value": 140, "unit": "nM"}
    ]},
    {"compound": "O=C(c1nc2c(C(F)(F)F)cc(-c3ccoc3)cn2c1Cl)N1CC[C@@H](N2CCOC2=O)[C@H](O)C1", "note": "(racemic) [Compound 212, (±) trans-3-(1-{[3-chloro-6-(3-furanyl)-8-(trifluoromethyl)imidazo[1,2-a]pyridin-2-yl]carbonyl}-3-hydroxy-4-piperidinyl)-1,3-oxazolidin-2-one]", "values": [
      {"measurement": "EC50", "setting": "HCV Genotype 1A Replicon", "value": 50, "unit": "nM"},
      {"measurement": "EC50", "setting": "HCV Genotype 1B Replicon", "value": 80, "unit": "nM"}
    ]},
    {"compound": "CC(C)Cc1cc(C(F)(F)F)c2nc(C(=O)N3CC[C@H](N4CCOC4=O)[C@@H](O)C3)c(Cl)n2c1", "note": "(racemic) [Compound 215, (±) trans-3-(1-{[3-chloro-6-(2-methylpropyl)-8-(trifluoromethyl)imidazo[1,2-a]pyridin-2-yl]carbonyl}-3-hydroxy-4-piperidinyl)-1,3-oxazolidin-2-one]", "values": [
      {"measurement": "EC50", "setting": "HCV Genotype 1A Replicon", "value": 90, "unit": "nM"},
      {"measurement": "EC50", "setting": "HCV Genotype 1B Replicon", "value": 350, "unit": "nM"}
    ]},
    {"compound": "O=C(c1nc2c(C(F)(F)F)cc(Br)cn2c1Cl)N1CC[C@H](N2CCOC2=O)[C@@H](O)C1", "note": "(racemic) [Compound 219, (±) trans-3-(1-{[6-bromo-3-chloro-8-(trifluoromethyl)imidazo[1,2-a]pyridin-2-yl]carbonyl}-3-hydroxy-4-piperidinyl)-1,3-oxazolidin-2-one]", "values": [
      {"measurement": "EC50", "setting": "HCV Genotype 1A Replicon", "value": 150, "unit": "nM"},
      {"measurement": "EC50", "setting": "HCV Genotype 1B Replicon", "value": 580, "unit": "nM"}
    ]},
    {"compound": "O=C(c1nc2c(C(F)(F)F)cc(Br)cn2c1Cl)N1CC[C@H](N2C(=O)COC2=O)[C@@H](O)C1", "note": "(racemic) [Compound 222, (±) trans-3-(1-{[6-bromo-3-chloro-8-(trifluoromethyl)imidazo[1,2-a]pyridin-2-yl]carbonyl}-3-hydroxy-4-piperidinyl)-1,3-oxazolidine-2,4-dione]", "values": [
      {"measurement": "EC50", "setting": "HCV Genotype 1A Replicon", "value": 940, "unit": "nM"},
      {"measurement": "EC50", "setting": "HCV Genotype 1B Replicon", "value": 20, "unit": "nM"}
    ]},
    {"compound": "O=C(c1nc2c(C(F)(F)F)cc(-c3ccoc3)cn2c1Cl)N1CC[C@H](N2C(=O)COC2=O)[C@@H](O)C1", "note": "(racemic) [Compound 223, (±) trans-3-(1-{[3-chloro-6-(3-furanyl)-8-(trifluoromethyl)imidazo[1,2-a]pyridin-2-yl]carbonyl}-3-hydroxy-4-piperidinyl)-1,3-oxazolidine-2,4-dione]", "values": [
      {"measurement": "EC50", "setting": "HCV Genotype 1A Replicon", "value": 1580, "unit": "nM"},
      {"measurement": "EC50", "setting": "HCV Genotype 1B Replicon", "value": 810, "unit": "nM"}
    ]},
    {"compound": "O=C(c1nc2c(C(F)(F)F)cc(C3CC3)cn2c1Cl)N1CC[C@H](N2C(=O)COC2=O)[C@@H](O)C1", "note": "(racemic) [Compound 224, (±) trans-3-(1-{[3-chloro-6-cyclopropyl-8-(trifluoromethyl)imidazo[1,2-a]pyridin-2-yl]carbonyl}-3-hydroxy-4-piperidinyl)-1,3-oxazolidine-2,4-dione]", "values": [
      {"measurement": "EC50", "setting": "HCV Genotype 1A Replicon", "value": 1430, "unit": "nM"},
      {"measurement": "EC50", "setting": "HCV Genotype 1B Replicon", "value": 210, "unit": "nM"}
    ]},
    {"compound": "O=C(c1nc2c(C(F)(F)F)cc(C3CC3)cn2c1Cl)N1CC[C@H](N2CCCC2=O)[C@@H](O)C1", "note": "(racemic) [Compound 225, (±) trans-1-(1-{[3-chloro-6-cyclopropyl-8-(trifluoromethyl)imidazo[1,2-a]pyridin-2-yl]carbonyl}-3-hydroxy-4-piperidinyl)-2-pyrrolidinone]", "values": [
      {"measurement": "EC50", "setting": "HCV Genotype 1A Replicon", "value": 480, "unit": "nM"},
      {"measurement": "EC50", "setting": "HCV Genotype 1B Replicon", "value": 150, "unit": "nM"}
    ]},
    {"compound": "O=C(c1nc2c(C(F)(F)F)cc(Br)cn2c1Cl)N1CC[C@H](N2CCCC2=O)[C@@H](O)C1", "note": "(racemic) [Compound 226, (±) trans-1-(1-{[6-bromo-3-chloro-8-(trifluoromethyl)imidazo[1,2-a]pyridin-2-yl]carbonyl}-3-hydroxy-4-piperidinyl)-2-pyrrolidinone]", "values": [
      {"measurement": "EC50", "setting": "HCV Genotype 1A Replicon", "value": 2260, "unit": "nM"},
      {"measurement": "EC50", "setting": "HCV Genotype 1B Replicon", "value": 1450, "unit": "nM"}
    ]},
    {"compound": "O=C(c1nc2c(C(F)(F)F)cc(-c3ccoc3)cn2c1Cl)N1CC[C@H](N2CCCC2=O)[C@@H](O)C1", "note": "(racemic) [Compound 227, (±) trans-1-(1-{[3-chloro-6-(3-furanyl)-8-(trifluoromethyl)imidazo[1,2-a]pyridin-2-yl]carbonyl}-3-hydroxy-4-piperidinyl)-2-pyrrolidinone]", "values": [
      {"measurement": "EC50", "setting": "HCV Genotype 1A Replicon", "value": 690, "unit": "nM"},
      {"measurement": "EC50", "setting": "HCV Genotype 1B Replicon", "value": 340, "unit": "nM"}
    ]},
    {"compound": "O=C(c1nc2c(C(F)(F)F)cc(C3CC3)cn2c1Cl)N1CC[C@H](N2CCCC2=O)[C@H](O)C1", "note": "(racemic) [Compound 228, (±) cis-1-(1-{[3-chloro-6-cyclopropyl-8-(trifluoromethyl)imidazo[1,2-a]pyridin-2-yl]carbonyl}-3-hydroxy-4-piperidinyl)-2-pyrrolidinone]", "values": [
      {"measurement": "EC50", "setting": "HCV Genotype 1A Replicon", "value": 250, "unit": "nM"},
      {"measurement": "EC50", "setting": "HCV Genotype 1B Replicon", "value": 90, "unit": "nM"}
    ]},
    {"compound": "O=C(c1nc2c(C(F)(F)F)cc(Br)cn2c1Cl)N1CC[C@H](N2CCCC2=O)[C@H](O)C1", "note": "(racemic) [Compound 229, (±) cis-1-(1-{[6-bromo-3-chloro-8-(trifluoromethyl)imidazo[1,2-a]pyridin-2-yl]carbonyl}-3-hydroxy-4-piperidinyl)-2-pyrrolidinone]", "values": [
      {"measurement": "EC50", "setting": "HCV Genotype 1A Replicon", "value": 960, "unit": "nM"},
      {"measurement": "EC50", "setting": "HCV Genotype 1B Replicon", "value": 350, "unit": "nM"}
    ]},
    {"compound": "O=C(c1nc2c(C(F)(F)F)cc(-c3ccoc3)cn2c1Cl)N1CC[C@H](N2CCCC2=O)[C@H](O)C1", "note": "(racemic) [Compound 230, (±) cis-1-(1-{[3-chloro-6-(3-furanyl)-8-(trifluoromethyl)imidazo[1,2-a]pyridin-2-yl]carbonyl}-3-hydroxy-4-piperidinyl)-2-pyrrolidinone]", "values": [
      {"measurement": "EC50", "setting": "HCV Genotype 1A Replicon", "value": 420, "unit": "nM"},
      {"measurement": "EC50", "setting": "HCV Genotype 1B Replicon", "value": 180, "unit": "nM"}
    ]},
    {"compound": "O=C(c1nc2c(C(F)(F)F)cc(C3CC3)cn2c1Cl)N1CC[C@H](N2CCOC2=O)[C@H](O)C1", "note": "(racemic) [Compound 231, (±) cis-3-(1-{[3-chloro-6-cyclopropyl-8-(trifluoromethyl)imidazo[1,2-a]pyridin-2-yl]carbonyl}-3-hydroxy-4-piperidinyl)-1,3-oxazolidin-2-one]", "values": [
      {"measurement": "EC50", "setting": "HCV Genotype 1A Replicon", "value": 20, "unit": "nM"},
      {"measurement": "EC50", "setting": "HCV Genotype 1B Replicon", "value": 30, "unit": "nM"}
    ]},
    {"compound": "O=C(c1nc2c(C(F)(F)F)cc(Br)cn2c1Cl)N1CC[C@H](N2CCOC2=O)[C@H](O)C1", "note": "(racemic) [Compound 233, (±) cis-3-(1-{[6-bromo-3-chloro-8-(trifluoromethyl)imidazo[1,2-a]pyridin-2-yl]carbonyl}-3-hydroxy-4-piperidinyl)-1,3-oxazolidin-2-one]", "values": [
      {"measurement": "EC50", "setting": "HCV Genotype 1A Replicon", "value": 110, "unit": "nM"},
      {"measurement": "EC50", "setting": "HCV Genotype 1B Replicon", "value": 180, "unit": "nM"}
    ]},
    {"compound": "CO[C@H]1CN(C(=O)c2nc3c(C(F)(F)F)cc(-c4ccoc4)cn3c2Cl)CC[C@@H]1N1CCOC1=O", "note": "(racemic) [Compound 236, (±) trans-3-[1-{[3-chloro-6-(3-furanyl)-8-(trifluoromethyl)imidazo[1,2-a]pyridin-2-yl]carbonyl}-3-(methyloxy)-4-piperidinyl]-1,3-oxazolidin-2-one]", "values": [
      {"measurement": "EC50", "setting": "HCV Genotype 1A Replicon", "value": "≥ 5010", "unit": "nM"},
      {"measurement": "EC50", "setting": "HCV Genotype 1B Replicon", "value": "≥ 5010", "unit": "nM"}
    ]},
    {"compound": "O=C(c1nc2c(C(F)(F)F)cc(C3CC3)cn2c1Cl)N1CC[C@H](N2CCOC2=O)[C@H](O)C1", "note": "(single isomer, unassigned; enantiomer 1) [Compound 234, 3-((cis)-1-{[3-chloro-6-cyclopropyl-8-(trifluoromethyl)imidazo[1,2-a]pyridin-2-yl]carbonyl}-3-hydroxy-4-piperidinyl)-1,3-oxazolidin-2-one (Enantiomer 1)]", "values": [
      {"measurement": "EC50", "setting": "HCV Genotype 1B Replicon", "value": 50, "unit": "nM"}
    ]}
  ]
}
